According to patent US20170368148A1, “USES OF A PTHrP ANALOGUE IN REDUCING FRACTURE RISK” (RADIUS HEALTH, INC., priority 2015, published 2017):
Marks after values point to notes of the source that are not given here.

What was measured:
[1] = test system: postmenopausal women with osteoporosis; assay: ACTIVE trial: BMD by DXA; format: in vivo, human; conditions: for Mean percent change in BMD from baseline (ANCOVA), Femoral Neck / Mean percent change in BMD from baseline (ANCOVA), Lumbar Spine / Mean percent change in BMD from baseline (ANCOVA), Total Hip / Mean percent change in BMD from baseline (MMRM), Femoral Neck / Mean percent change in BMD from baseline (MMRM), Lumbar Spine / Mean percent change in BMD from baseline (MMRM), Total Hip: abaloparatide 80 μg or teriparatide 20 μg daily
Protocol: BMD and bone turnover biomarkers (CTX and P1NP) were also evaluated in all patient groups to compare the effects of abaloparatide versus teriparatide.
As set forth in the ACTIVE protocol, the primary efficacy endpoint was the number of patients treated with abaloparatide with incident vertebral fractures at the end of treatment as compared to those who received placebo. The pre-specified secondary efficacy parameters included, among other endpoints, reduction in the incidence/risk of non-vertebral fractures; changes in BMD of the spine, hip, and femoral neck from baseline to end of treatment as assessed by DXA and as compared to teriparatide; and the number of hypercalcemic events in abaloparatide treated patients when compared to teriparatide at end of treatment.
Comparative analyses of abaloparatide versus teriparatide were completed on the following BMD secondary endpoints using a Mixed-Effect Model for Repeated Measures (MMRM) method, shown in Table 4 below:
Comparative analyses of the PTHrP analogues abaloparatide and teriparatide were completed on the following BMD secondary endpoints using an ANCOVA approach, shown in Table 5 below: […]

[2] = test system: postmenopausal women with osteoporosis; assay: Phase 2 24-week trial: serum biochemical markers of bone turnover; format: in vivo, human; conditions: 24 weeks; 20 μg daily SC
Protocol: Biochemical Markers of bone turnover: Fasting morning blood samples (collected 24 hours after last injection if taking teriparatide) were obtained at each visit. Serum osteocalcin (OC) was measured via electrochemiluminescence assay (Roche Diagnostics, Basel, Switzerland), with […] coefficients of variation (CVs) of 1.8% and 4.8% respectively. Serum amino-terminal propeptide of type 1 procollagen (P1NP) was measured via radioimmunoassay (Orion Diagnostica, Espoo, Finland) with inter- and intra-assay CVs of 4.5% and 5.5% respectively. Serum β-c-terminal telopeptide of type one collagen (CTX) was measured via electrochemiluminescence assay (Roche Diagnostics, Basel, Switzerland) with inter- and intraassay CVs of 3.8% and 6.9% respectively.

[3] = test system: postmenopausal osteoporotic women; assay: Trabecular bone score (TBS) from spinal DXA, phase 2 trial; format: in vivo, human; conditions: 20 μg daily SC
Text: To assess the effects of the PTHrP analogue abaloparatide on trabecular microarchitecture as indirectly assessed by TBS, the TBS (TBS Calculator v2.2, Medimaps group, Plan-les-Ouates, Geneva, Switzerland) in a blinded fashion at 0, 12, and 24-weeks in 222 postmenopausal osteoporotic women (age 55-85) who were randomized to receive 24-weeks of daily subcutaneous injections of placebo, abaloparatide 20-μg, abaloparatide 40-μg. abaloparatide 80-μg, or teriparatide (TPTD) 20-μg was retrospectively calculated. Between groups differences in the mean percent TBS changes were assessed by unpaired t-test.

[4] = test system: postmenopausal women with osteoporosis; assay: ACTIVE trial: adverse events; conditions: 18 months; abaloparatide 80 μg (n = 822), teriparatide 20 μg (n = 818)
Protocol: Safety evaluations performed in the ACTIVE trial included physical examinations, vital signs, 12-lead electrocardiograms, or ECGs, clinical laboratory tests and monitoring, and recording of adverse events. Specific safety assessments included pre-dose and post-dose (four hours) determination of serum calcium, determination of creatinine clearance, post-dose ECG assessments at selected visits, and assessments of postural hypotension (60 minutes post-dose) at selected clinic visits.
The ACTIVE trial also evaluated several potential safety measures, including blood calcium levels, orthostatic hypotension, nausea, dizziness, and injection-site reactions.

[5] = test system: postmenopausal women with osteoporosis; assay: Phase 2 trial: safety, serum calcium, antibody formation; conditions: 20 μg daily SC
Protocol: All subjects received supplemental calcium (500-1000 mg) and vitamin D (400-800 IU) per local practice. […] Blood calcium levels were assessed 4-hours and 24-hours after drug administration. Subjects were monitored for adverse events (AEs) and local tolerance at the injection site at each visit. Clinical and laboratory safety parameters, electrocardiograms, were also measured at each study visit.
Efficacy and safety were assessed using all randomized patients who received at least one dose of study drug. Baseline characteristics and safety parameters were summarized using descriptive statistics. […] All hypotheses were tested at the 2-sided 5% significance level.

SMILES: CC[C@H](C)[C@H](NC(=O)[C@H](CCC(=O)O)NC(=O)[C@H](CO)NC(=O)[C@@H](NC(=O)[C@@H](N)CO)C(C)C)C(=O)N[C@@H](CCC(N)=O)C(=O)N[C@@H](CC(C)C)C(=O)N[C@@H](CCSC)C(=O)N[C@@H](Cc1cnc[nH]1)C(=O)N[C@@H](CC(N)=O)C(=O)N[C@@H](CC(C)C)C(=O)NCC(=O)N[C@@H](CCCCN)C(=O)N[C@@H](Cc1cnc[nH]1)C(=O)N[C@@H](CC(C)C)C(=O)N[C@@H](CC(N)=O)C(=O)N[C@@H](CO)C(=O)N[C@@H](CCSC)C(=O)N[C@@H](CCC(=O)O)C(=O)N[C@@H](CCCN=C(N)N)C(=O)N[C@H](C(=O)N[C@@H](CCC(=O)O)C(=O)N[C@@H](Cc1c[nH]c2ccccc12)C(=O)N[C@@H](CC(C)C)C(=O)N[C@@H](CCCN=C(N)N)C(=O)N[C@@H](CCCCN)C(=O)N[C@@H](CCCCN)C(=O)N[C@@H](CC(C)C)C(=O)N[C@@H](CCC(N)=O)C(=O)N[C@@H](CC(=O)O)C(=O)N[C@H](C(=O)N[C@@H](Cc1cnc[nH]1)C(=O)N[C@@H](CC(N)=O)C(=O)N[C@@H](Cc1ccccc1)C(=O)O)C(C)C)C(C)C [teriparatide, hPTH(1-34)]
- Mean percent change in BMD from baseline (ANCOVA), Femoral Neck ([1]; 6 mo): 0.80%*
- Mean percent change in BMD from baseline (ANCOVA), Lumbar Spine ([1]; 6 mo): 4.84%*
- Mean percent change in BMD from baseline (ANCOVA), Total Hip ([1]; 6 mo): 1.33%*
- Mean percent change in BMD from baseline (MMRM), Femoral Neck ([1]; 6 mo): 0.87%*
- Mean percent change in BMD from baseline (MMRM), Lumbar Spine ([1]; 6 mo): 5.25%*
- Mean percent change in BMD from baseline (MMRM), Total Hip ([1]; 6 mo): 1.44%*
- Mean percent change in BMD from baseline (ANCOVA), Femoral Neck ([1]; 12 mo): 1.41%*
- Mean percent change in BMD from baseline (ANCOVA), Lumbar Spine ([1]; 12 mo): 7.40%*
- Mean percent change in BMD from baseline (ANCOVA), Total Hip ([1]; 12 mo): 2.03%*
- Mean percent change in BMD from baseline (MMRM), Femoral Neck ([1]; 12 mo): 1.54%*
- Mean percent change in BMD from baseline (MMRM), Lumbar Spine ([1]; 12 mo): 8.28%*
- Mean percent change in BMD from baseline (MMRM), Total Hip ([1]; 12 mo): 2.29%*
- Subjects with increased BMD of >3% at all three sites (lumbar spine, total hip, femoral neck) ([1]; 12 months): 19.8%
- Mean percent change in BMD from baseline (ANCOVA), Femoral Neck ([1]; 18 mo): 2.26%*
- Mean percent change in BMD from baseline (ANCOVA), Lumbar Spine ([1]; 18 mo): 9.12%*
- Mean percent change in BMD from baseline (ANCOVA), Total Hip ([1]; 18 mo): 2.81%*
- Mean percent change in BMD from baseline (MMRM), Femoral Neck ([1]; 18 mo): 2.66%*
- Mean percent change in BMD from baseline (MMRM), Lumbar Spine ([1]; 18 mo): 10.49%*
- Mean percent change in BMD from baseline (MMRM), Total Hip ([1]; 18 mo): 3.26%*
- Subjects with increased BMD of >3% at all three sites (lumbar spine, total hip, femoral neck) ([1]; 18 months): 32.0%
- Subjects with increased BMD of >3% at all three sites (lumbar spine, total hip, femoral neck) ([1]; month 6): 6.5%
- CTX increase, median (interquartile range) [2]: 76 (13, 130) %
- P1NP increase, median (interquartile range) [2]: 98 (21, 184) %
- TBS mean percent change ([3]; 12 weeks): +1.5%
- TBS mean percent change ([3]; 24 weeks): +2.6%
- AE: Arthralgia [4]: 8.6%
- AE: Back pain [4]: 7.2%^‡
- AE: Constipation [4]: 4.2%
- AE: Dizziness [4]: 7.3%
- AE: Headache [4]: 6.2%
- AE: Hypercalcemia (serum albumin-corrected calcium value ≧10.7 mg/dL) [4]: 6.37%^†
- AE: Hypercalciuria [4]: 12.5%^‡
- AE: Hypertension [4]: 5.0%
- AE: Influenza [4]: 4.2%
- AE: Nasopharyngitis [4]: 6.5%
- AE: Nausea [4]: 5.1%^‡
- AE: Pain in extremity [4]: 5.1%
- AE: Palpitations [4]: 1.6%^‡
- AE: Upper respiratory tract infection [4]: 8.9%
- AE: Urinary tract infection [4]: 5.0%
- Highest serum calcium value obtained by any subject ([5]; 4-hours post-dose): 12.6 mg/dL
- Patients with serum calcium levels ≧10.5 mg/dL ([5]; 4-hours post-dose): 40%
- Patients with serum calcium levels ≧10.5 mg/dL ([5]; 24-hours after the last injection): 16%
- Highest serum calcium value obtained by any patient ([5]; 24-hours post-dose): 11.2 mg/dL
- Dizziness ([5]; 24 weeks): 4%
- Incidence of headache ([5]; 24 weeks): 13%
- Patients discontinued due to AEs ([5]; 24 weeks): 4%
- Proportion of patients that experienced TEAEs ([5]; 24 weeks): 78%
- TEAEs possibly or probably related to study treatment ([5]; 24 weeks): 29%
- Treatment-related TEAEs ([5]; extension to 48 weeks): 21%
